Experimental data: PubChem BioAssay (NCI)
“And” between values parts separate entries of the source, which are not always exact repeats. Equal values may be shown once.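 All cell lines were grown in 96-well plates and treated with compound for 48 hours. At the GI50, growth is halved. TGI marks complete inhibition of growth.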 Where a SMILES comes first, the peptide text is derived from it. The star is where a group is joined. Cbz = O=C(OCc1ccccc1)*; CH2Cl = ClC*

What was measured:
Assay in all cases: NCI-60 cell line screen, 48 h
786-0 renal = tested on: 786-0 renal
A498 renal = tested on: A498 renal
CCRF-CEM leukemia = tested on: CCRF-CEM leukemia
HCC-2998 colon = tested on: HCC-2998 colon
MDA-MB-231 breast = tested on: MDA-MB-231 breast
MDA-MB-435 = tested on: MDA-MB-435

Structure (SMILES)	GI50 (786-0 renal) [µM]	TGI (786-0 renal)	GI50 (A498 renal) [µM]	TGI (A498 renal) [µM]	GI50 (CCRF-CEM leukemia) [µM]	TGI (CCRF-CEM leukemia)	GI50 (HCC-2998 colon) [µM]	TGI (HCC-2998 colon) [µM]	GI50 (MDA-MB-231 breast) [µM]	TGI (MDA-MB-231 breast)	GI50 (MDA-MB-435) [µM]	TGI (MDA-MB-435)
Cc1nn(-c2ccc(Cl)cc2)c2nc3c(nc12)C(=O)c1ccccc1-3	75.3	> 100 µM	31.7	> 100	> 100	> 100 µM	> 100	> 100	82.7	> 100 µM	> 100	> 100 µM
Nc1nc(/C=C\c2ccc([N+](=O)[O-])s2)nc(N2CCCC2)n1	10.8	23.6 µM	16.6	34.6	1.57	5.23 µM	4.86	12.8	1.56	9.35 µM	2.24	8.09 µM
CNCC#Cc1c(F)ccc2c1/C(=C/c1[nH]ccc1OC)C(=O)N2	0.215	3.27 µM	0.179	1.41	0.107	0.954 µM	0.398	1.63	0.416	2.18 µM	0.156	1.41 µM
C#C[C@]1(O)CCC2C3CCc4cc(O)ccc4C3CC[C@@]21C (stereo not given in full)	5.08	21.9 µM	4.62	18.3			9.88	63.5	7.58	47.2 µM	0.628	9.59 µM
Cc1ccc(NC(=O)CC2CC2)cc1-c1ccc(C(=O)NCC2CC2)cc1	> 25	> 25 µM	> 25	> 25	> 25	> 25 µM	> 25	> 25	> 25	> 25 µM	> 19.5	> 25 µM
CS(=O)(=O)CCNCc1nc(-c2ccc3ncnc(Nc4ccc(OCc5cccc(C(F)(F)F)c5)cc4)c3c2)cs1	> 16.5	> 25 µM	4.1	> 25	> 25	> 25 µM	> 25	> 25	12.6	> 25 µM	> 25	> 25 µM
COc1cc(-n2cc(-c3ccc(F)cc3)[nH]c2=O)cc(OC)c1OC	> 100	> 100 µM					> 100	> 100	49.5	> 100 µM	> 100	> 100 µM
COc1cc(F)ccc1-c1ncnc(Nc2cccc(CS(C)(=N)=O)c2)n1 (stereo not given)	1.18	> 100 µM	0.424	1.66	0.447	> 100 µM	2.54	> 100	1.74	> 100 µM	1.55	> 100 µM
O=C(CC1(O)C(=O)N(Cc2ccccc2)c2ccc(F)cc21)c1ccc(C(=O)NCC2CCC3(CC2)OOC2(CCCCC2)OO3)cc1 (stereo not given)	0.18	0.344 µM	1.69	3.88	0.274	0.924 µM	1.84	3.92	0.423	1.68 µM	0.468	1.42 µM
COc1ccc2c(c1)C(=O)c1c-2c(N2CCN(C(=O)CNCCNCCO)CC2)nc2ccccc12	1.77	3.34 µM	8.32	20.2	1.98	5.22 µM	2.58	7.58	3.23	12.7 µM	8.18	28.5 µM
C=C(C)[C@@H]1CC[C@]2(C)[C@H](CC=C3[C@@H]4CC(C)(C)CC[C@]4(C(N)=O)CC[C@]32C)[C@@]1(C)CCC#N	2	4.12 µM	2.16	5.32	3.02	> 100 µM	4.02	> 100	3.96	> 100 µM	3.21	20.5 µM
NCCNc1c2c(c(NCCN)c3[nH]ccc13)C(=O)c1ccccc1C2=O	0.224	1.04 µM	0.231	0.565	< 0.01	0.163 µM	< 0.01	0.093	0.109	0.605 µM	0.225	0.692 µM
COc1cc2c3c(n(C)c(=O)c2cc1OC)-c1cc2c(cc1/C3=C\CN)OCO2	0.314	17.3 µM	3.07	86.8	0.124	6.97 µM	0.0628	0.589	5.8	> 35.4 µM	0.819	33.8 µM
O=C(CSc1nc2ccccc2nc1-c1ccccc1)Nc1ccc(F)cc1	49.2	> 100 µM	41.7	> 100	> 100	> 100 µM	49.6	> 100	34.3	> 100 µM	> 100	> 100 µM
Cc1c2c(C#N)nccc2c(C)c2c1c1ccccc1n2Cc1ccccc1		> 100 µM				> 100 µM		> 100		> 100 µM		> 100 µM
COc1cc(Cn2c(-c3ccccc3)c(Cl)c3c2-c2oncc2CC3)cc(OC)c1	12.9	> 100 µM	2.96	90.3	3.54	> 100 µM	9.97	> 100	11.4	44.9 µM	2.26	5.97 µM
COc1cc2c(cc1OCCCNC(=O)c1cccc3c(=O)c4ccccc4[nH]c13)N=C[C@@H]1CCCN1C2=O	< 0.01	24 µM	< 0.01	0.0225	< 0.01		< 0.0103	0.0321	< 0.01	< 0.0484 µM		
[Cl][Hg][c]1cc[c]([Hg][Cl])o1	4.5	15.1 µM	20	34.2	0.295	8.75 µM	17	42.9	1.9	5.09 µM	3.4	14.4 µM
O=C(Nc1ccncc1)C(=O)c1cn(S(=O)(=O)c2ccc(F)cc2)c2ccccc12	4.55	79.7 µM	6.57	63.2	6.21	> 100 µM	8.57	> 100	5.97	> 100 µM		
CCSc1ncnc2c1ncn2C1OC(CO)C(O)C1O (stereo not given)	0.449	> 100 µM	0.081	1.92	0.146	> 100 µM	0.203	7.35	0.745	> 100 µM	0.482	> 100 µM

Structure (SMILES)	GI50 (786-0 renal) [µM]	TGI (786-0 renal)	GI50 (A498 renal) [µM]	TGI (A498 renal) [µM]	GI50 (CCRF-CEM leukemia) [µM]	TGI (CCRF-CEM leukemia)	GI50 (HCC-2998 colon) [µM]	TGI (HCC-2998 colon) [µM]	GI50 (MDA-MB-231 breast) [µM]	TGI (MDA-MB-231 breast)	GI50 (MDA-MB-435) [µM]	TGI (MDA-MB-435)
COc1c(OC[C@H](O)CN2CCOCC2)ccc2c3n(c(=NC(=O)c4cccnc4C)nc12)CCN3	0.399	> 50 µM	0.167	1.85	1.67	> 50 µM	1.9	> 50	> 50	> 50 µM	14.1	> 50 µM
O=C(O)Cc1cc(Cl)ccc1O		> 100 µM		> 100		> 100 µM		> 100		> 100 µM		> 100 µM
CC(C)CC(NC(=O)OCc1ccccc1)C(=O)NC(Cc1ccccc1)C(=O)CCl (stereo not drawn) (Cbz-Leu-Phe-CH2Cl; configuration not given here)		3.08 µM		71.2		0.776 µM		26.1		3.3 µM		6.56 µM
C=C(Cl)C(Br)(CCl)CCC(Br)C(C)(C)Cl (stereo not given)	1.67	3.73 µM and 3.21 µM		35.3	0.223	6.34 µM and 1.38 µM		30.5	2.02	2.32 µM and 3.77 µM	2.13	8.65 µM and 4.27 µM
O=C1/C(=C/c2cccc(Cl)c2Cl)N=C(c2ccccc2)N1C1CC1	7.29	14.4 µM							8.05	18.3 µM	11.1	24.1 µM
COc1cc(-c2cc(-c3cc4c([nH]c5ccccc54)c(-c4cc(OC)c(OC)c(OC)c4)n3)cc(-c3ccccc3)n2)cc(OC)c1OC	7.15	> 100 µM	1.64	7.96	3.6	> 100 µM	7.3	> 100	3.59	> 100 µM		
C[C@@H]1CC[C@@H]2[C@@H]1[C@H](OC(=O)/C=C/c1ccccc1)[C@]1(C3CCCCC3)C[C@@H](OC(=O)CO)[C@@]2(C)O1	1.17	3.07 µM	0.0191	0.0572	4.45	14.1 µM	1.94	3.92	2.47	6.61 µM	2.99	11 µM
O=C1C=CC(=O)c2cc3cc(CBr)ccc3cc21	2.28	5.24 µM	17.5	34.4	1.89	> 100 µM	6.16	19.2	1.95	8.09 µM	11.8	33.7 µM
Nc1c(C(=O)Nc2ccncc2)sc2nc3c(cc12)CCCCCCCC3	0.93	1.66 µM	0.871	1.58	1.3	3.26 µM	0.9	1.63	0.899	1.66 µM	0.869	1.6 µM
COc1ccc(-c2nc3ccc(-c4nc5ccc(N6CCN(c7ccccc7)CC6)cc5[nH]4)cc3[nH]2)cc1OC	1.62	3.12 µM	2.93	9.63		2.54 µM	1.72	3.34	2.48	5.05 µM	1.73	3.32 µM
CN(C)CC[PH+](c1ccccc1)c1ccccc1.CN(C)CC[PH+](c1ccccc1)c1ccccc1.[Cl-].[Pd+2]	> 100	> 100 µM	> 100	> 100	23.9	> 100 µM	> 100	> 100	> 100	> 100 µM	> 100	> 100 µM
CCOC(=O)Nc1ccc(C)c(NC(=O)OCC)c1		> 100 µM		> 100		> 100 µM		> 100		> 100 µM		> 100 µM
COc1cccc2c1C(=O)c1c(O)c3c(c(O)c1C2=O)C[C@](O)(C(=O)CO)C[C@H]3O[C@@H]1C[C@@H](NC(=O)CCCCCN(C)C2(c3ccc(F)cc3)CC3CCC2C3)[C@H](O)[C@@H](C)O1 (stereo not given in full)	0.82	1.61 µM	5.92	12.4	1.13	3.92 µM	1.03	3.37	1	2.63 µM	8.67	19.4 µM
CC(C)Oc1ccc2cc(-c3nn(CC4CCNCC4)c4ncnc(N)c34)ccc2c1	11	24.4 µM	14.2	28.2	3.98	16.9 µM	9.53	24.6	3.05	9.94 µM	3.86	14.6 µM
COc1ccc(-c2nn(-c3ccc(NC(=O)c4ccc(Cl)c(Cl)c4)cc3)cc2-c2ccncc2)cc1Cl	1.01	2.53 µM	1.26	4.52	3.63	> 50 µM	1.85	> 50	0.993	2.96 µM	3.97	> 50 µM
COc1ccc(Nc2nnc(-c3cc(O)ccc3O)s2)cc1	> 50	> 50 µM	> 50	> 50					9.65	31.1 µM	9.22	19.1 µM
Cn1cc(C2=C(c3cn(CCCCO)c4ccccc34)C(=O)NC2=O)c2ccccc21	8.81	> 25 µM	6.32	22.2	6	> 25 µM	16.3	> 25	17.2	> 25 µM	8.81	> 25 µM
COc1ccc(C(=O)/C=C/c2cc(-c3cc(OC)c(OC)c(OC)c3)n[nH]2)cc1OC	1.4	2.86 µM	1.48	2.98	0.626	3.93 µM	2.13	3.78	1.48	3.06 µM	1.34	2.71 µM
CCCN1C(=O)N(CCC)C2C1NC(=S)N2/N=C/C=C/c1ccccc1OC (stereo not given)	0.779	> 68.8 µM	0.203	1	0.448	> 100 µM	2.36	65.1	2.16	22.5 µM		
